Where two headings read alike, the source gives them in different places. Residues, ends and D or L forms follow the SMILES beside them.
What was measured:
α-glucosidase [1] = target: T1, α-glucosidase (Saccharomyces cerevisiae, UniProt P53341); parameters: method as in 7 sources, ref [4]; doi:10.1016/j.foodchem.2011.05.067; 4. Yu Z. Yin Y. Zhao W. Yu Y. Liu B. Liu J. Chen F. Novel peptides derived from egg white protein inhibiting alpha-glucosidase Food Chem. 2011 129 1376 1382 10.1016/j.foodchem.2011.05.067 ||| ref [25] = [25]; PMID 22953959; doi:10.1016/j.foodchem.2012.06.088; 25. Yu Z. Yin Y. Zhao W. Liu J. Chen F. Anti-diabetic activity peptides from albumin against alpha-glucosidase and alpha-amylase Food Chem. 2012 135 2078 2085 10.1016/j.foodchem.2012.06.088 22953959 ||| ref [10] = [10]; doi:10.1016/j.lwt.2021.113062; 10. Zhao Q. Wei G. Li K. Duan S. Ye R. Huang A. Identification and molecular docking of novel α-glucosidase inhibitory peptides from hydrolysates of Binglangjiang buffalo casein LWT 2022 156 113062 10 ||| ref [27] = [27]; PMID 36240562; doi:10.1016/j.foodchem.2022.134481; 27. Wang X. Deng Y. Xie P. Liu L. Zhang C. Cheng J. Zhang Y. Liu Y. Huang L. Jiang J. Novel bioactive peptides from ginkgo biloba seed protein and evaluation of their alpha-glucosidase inhibition acti ||| ref [43] = [43]; PMID 34920404; doi:10.1016/j.foodchem.2021.131717; 43. Chandrasekaran S. Gonzalez de Mejia E. Optimization, identification, and comparison of peptides from germinated chickpea ( Cicer arietinum ) protein hydrolysates using either papain or ficin and t ||| ...; settings: cited from earlier work; for IC50 values: from germinated chickpea protein, ref [43]
T1 sequence (P53341 whole entry): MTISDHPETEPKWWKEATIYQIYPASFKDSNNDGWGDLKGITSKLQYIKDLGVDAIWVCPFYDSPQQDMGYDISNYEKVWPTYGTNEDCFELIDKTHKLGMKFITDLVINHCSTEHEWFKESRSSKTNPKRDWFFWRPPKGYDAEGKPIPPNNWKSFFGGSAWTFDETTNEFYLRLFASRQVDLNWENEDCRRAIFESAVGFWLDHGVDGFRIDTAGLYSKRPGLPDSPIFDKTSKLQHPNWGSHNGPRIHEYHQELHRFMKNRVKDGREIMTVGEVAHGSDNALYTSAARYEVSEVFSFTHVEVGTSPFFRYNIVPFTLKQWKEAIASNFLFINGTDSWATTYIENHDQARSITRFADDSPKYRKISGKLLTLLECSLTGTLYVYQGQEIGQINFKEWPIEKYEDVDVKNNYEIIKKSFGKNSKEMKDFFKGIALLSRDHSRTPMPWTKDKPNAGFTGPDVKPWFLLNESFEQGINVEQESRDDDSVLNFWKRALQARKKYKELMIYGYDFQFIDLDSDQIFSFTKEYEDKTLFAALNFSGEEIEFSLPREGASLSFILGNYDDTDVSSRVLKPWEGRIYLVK

α-glucosidase [2] = target: T1, α-glucosidase; assay: α-glucosidase inhibition activity (PNPG); format: biochemical; settings: synthetic peptides; enzyme 0.2 U/mL, preincubation 25 °C 10 min, PNPG 5 mmol/L, 30 min 37 °C, 405 nm; mean ± SD, three repetitions
Excerpt: Shiitake mushrooms were acquired from a farmers’ market. Neutral protease (50 U/mg), pepsin (1:30,000), alkaline protease (200 U/mg), acid protease (50 U/mg), papain (800 U/mg), and flavor protease (20 U/mg) were purchased from Qiyi Biotechnology (Shanghai, China) Co., Ltd. α-glucosidase (10 U/mg) and 4-nitrophenyl a-D-glucopyranoside (PNPG, 99% purity) were purchased from Sigma-Aldrich (St. Louis, MO, USA). Acetonitrile (HPLC grade, 99.9% purity) was purchased from Fisher Chemical (Hampton, NH, USA). Formic acid (LC-MS grade, 99% purity) was purchased from Thermo Scientific (Waltham, MA, USA). Other reagents were of analytical grade and commercially available.
A quantity of 100 μL α-glucosidase solution (0.2 U/mL) was premixed with 50 μL sample solution in the enzyme label plate, and incubated at 25 °C for 10 min; 50 μL of PNPG (5 mmol/L) solution was added to start reactions, and incubation was continued for another 30 min at 37 °C. The reaction was terminated with 50 μL 0.67 mol/L Na2CO3 solution. The absorbance value was measured at 405 nm using an AMR-100 automatic enzyme label analyzer. The results were calculated using the following formula:Inhibitory rate (%) = ((Acontrol − Asample)/Acontrol) × 100(1)
All experiments had three repetitions. Data are expressed as mean ± standard deviation. Statistical significance (Duncan’s test, p < 0.05) was analyzed by DPS. Response surface data were analyzed using Design-ExpertV8.0.6 software.

[3] = from ginkgo biloba seed protein, ref [27], read-out: IC50 values, α-glucosidase inhibitory activity
[4] = from Binglangjiang buffalo casein, ref [10], read-out: IC50 values, inhibitory activity of α-glucosidase

GLAR [from germinated chickpea protein]
IC50 values (α-glucosidase [1]): 8700 µg/mL

SPGAGKG [from germinated chickpea protein]
IC50 values (α-glucosidase [1]): 1800 µg/mL

CC(C)C[C@H](NC(=O)[C@H](CCCCN)NC(=O)CNC(=O)[C@H](Cc1ccc(O)cc1)NC(=O)[C@H](CC(=O)O)NC(=O)[C@@H](N)CC(C)C)C(=O)O [LDYGKL] (H-LDYGKL-OH)
IC50 (α-glucosidase [2]): 696 ± 39 µM

VPKIPPP [identified from ginkgo biloba seed protein]
IC50 (α-glucosidase [1]; [3]): 1450 ± 67 µM

LSMSFPPF [identified from ginkgo biloba seed protein]
IC50 (α-glucosidase [1]; [3]): 454 ± 32.5 µM

CC(C)C[C@H](NC(=O)[C@H](CC(=O)O)NC(=O)[C@H](CC(=O)O)NC(=O)[C@@H](N)CCCCN)C(=O)N[C@@H](CCCNC(=N)N)C(=O)N[C@@H](CO)C(=O)N1CCC[C@H]1C(=O)O [KDDLRSP] (H-KDDLRSP-OH)
IC50 (α-glucosidase [2]): 550 ± 37 µM

MPGPPSD [identified from ginkgo biloba seed protein]
IC50 (α-glucosidase [1]; [3]): 944 ± 73.1 µM

CC(C)C[C@H](NC(=O)[C@H](CCCCN)NC(=O)[C@H](CC(C)C)NC(=O)[C@H](CCC(=O)O)NC(=O)[C@@H]1CCCN1C(=O)[C@@H](N)[C@@H](C)O)C(=O)O [TPELKL] (H-TPELKL-OH)
IC50 (α-glucosidase [2]): 452 ± 36 µM

TKVIPYVRYL [from Binglangjiang buffalo casein]
IC50 (α-glucosidase [1]; [4]): 498 µM

YLGYLEQLLR [from Binglangjiang buffalo casein]
IC50 (α-glucosidase [1]; [4]): 470 µM

CC(C)C[C@H](NC(=O)[C@H](CCCCN)NC(=O)[C@@H]1CCCN1C(=O)[C@H](CCC(=O)O)NC(=O)CNC(=O)[C@@H](N)CCC(=O)O)C(=O)N1CCC[C@H]1C(=O)O [EGEPKLP] (H-EGEPKLP-OH)
IC50 (α-glucosidase [2]): 499 ± 39 µM

KLPGF
IC50 (α-glucosidase [1]; from albumin, ref [25], read-out: IC50 of α-glucosidase inhibitory peptide): 59.5 ± 5.7 µM

RVPSLM [identified from egg white protein]
IC50 (α-glucosidase [1]; identified from egg white protein, ref [4], read-out: IC50 value, α-glucosidase inhibitory activity): 23.1 µM

FALPQYLK [from Binglangjiang buffalo casein]
IC50 (α-glucosidase [1]; [4]): 543 µM

RNAVPITPTLNR [from Binglangjiang buffalo casein]
IC50 (α-glucosidase [1]; [4]): 504 µM
